The values that follow come from patent US8747837B2, “Oncolytic vaccinia virus combination cancer therapy” (priority 2009, dated 2014).

Structures are written as SMILES. Entries after “also recorded” stand apart in the source; their conditions may differ. Like-named read-outs stand apart in the source and are kept apart here.

Experiment [1] relates to JX-594 replication in PLC/PRF/5 human HCC cell line. As to the kind of experiment: JX-594 burst size / replication with sorafenib in PLC/PRF/5 cells. The class given is cell-based, vaccinia virus.
The test system of experiment [2] is JX-594 replication in A2780 (ovarian) cells. The format is cell-based, vaccinia virus.
In experiment [3] the test system is JX-594 replication in HepG2 (HCC) cells. The class given is cell-based, vaccinia virus.
Experiment [4] has as its system JX-594 replication in SNU423, SNU398, SNU475, SNU449, SNU387 and U2OS. The format is cell-based, vaccinia virus.
Experiment [5] relates to CT26 colorectal tumor cells. As to the kind of experiment: CT26 subcutaneous colorectal tumor model. The format is in vivo, Balb/c mice. The settings on record: combination therapy, FIG. 3 legend. The method, then:
FIG. 3. […] Kaplan-Meier survival curves are shown for each condition in the middle panel. Effects on tumor volume are shown in the lower panel.
Sorafenib enhances JX-594 activity against murine CT26 primary tumors in vivo: The combination of JX-594 and sorafenib was tested in an immunocompentent murine model of subcutaneously implanted CT26 colorectal tumor cells. Balb/c mice were injected with 3×10^5 CT26 cells subcutaneously and after 11 days, treatment commenced with Sorafenib alone (10 mg/kg p.o. daily for 2 weeks), JX594 alone (10^8 pfu IV 3 times per week for 1 week), or in combination (JX594 prior to Sorafenib, or Sorafenib prior to JX594) (n=4 per group) (FIG. 3, upper panel). Control animals received PBS only. For this experiment, a version of JX-594 was used that expresses murine GM-CSF. Tumors were measured twice weekly until endpoint. Surviving proportions of each study group at each timepoint post treatment are shown (FIG. 3, middle panel). The mean tumor volumes of each study group at each timepoint post-treatment are shown (FIG. 3, lower panel).

For experiment [6], the system named is B16-F10-LacZ cells. As to the kind of experiment: B16 melanoma lung nodule model. The settings on record: combination therapy, FIG. 4 legend. The class given is in vivo, C57BL/6 mice. The protocol:
Sorafenib Enhances JX-594 Activity Against Murine B16 Melanoma Lung Nodules in Vivo: The combination of JX-594 and sorafenib was tested in an immunocompentent murine model of B16 melanoma tumors. C57BL/6 mice were injected with 3×10^5 B16-F10-LacZ cells IV and treated with Sorafenib alone (HD: 10 mg/kg, LD: 50 μg/kg p.o. daily for 2 weeks), JX594 alone (10^7 pfu IV 3 times per week for 1 week), or in combination (LD or HD sorafenib prior to JX-594 IV) (n=5 per group)(FIG. 4, top panel). At the end of treatment, mice were sacrificed and lungs were fixed and stained to detect B16 surface nodules (n=5 per group). The mean number of tumor nodules at the end of study is shown for each group (FIG. 4).

The subject of experiment [7] is HepG2 (human HCC line) tumors. As to the kind of experiment: HepG2 vascularity study, CD31 vessel counts. The class given is in vivo, nude mice. An excerpt: FIG. 6 Anti-vascular effects of JX-594 followed by sorafenib. Top panels show study design of a preclinical study of JX-594 followed by Sorafenib in HepG2 xenograft model. […] Error bars are standard error.
Experimental Methods, Vascularity Study: The study followed longer term effects on vascularity and assessed the efficacy of JX-594+/−Sorafenib in the HepG2 model. HepG2 (human HCC line) tumors were implanted subcutaneously in nude mice. Animals were randomized to seven treatment groups (n=5 per group) to test agents alone, and in combination. Groups were treated with JX-594 (10^6 pfu intratumorally, D1 and D8) and/or Sorafenib (400 μg i.p., daily D15-D29) or PBS (control) on the schedule detailed in (FIG. 6). Tumors were measured using calipers twice weekly. Serum samples were collected on D1, D8, D15, D22 and D29 for measurement of VEGF and GM-CSF levels. Mice were euthanized on D22 or D35. Prior to euthanization, mice were injected with fluorescent microspheres to allow for visualization of tumor perfusion. […]
Results: Vessels were counted in CD31-stained OCT tumor sections; the average number of vessels in 3 fields of 200× magnification are presented in (FIG. 6).

For experiment [8], the system named is murine HCC model. The format is in vivo.
The subject of experiment [9] is hepatocellular carcinoma. As to the kind of experiment: Sorafenib therapy following JX-594 in HCC patients (DCE-MRI, Choi). The class given is in vivo, human. The protocol: Sorafenib Therapy and Tumor Response Assessment Following JX-594: Patients completed the IT clinical trial of JX-594 after 8 weeks on study. Some patients (Patients 1702, 1705, 1002, 1712, 1713) went on to receive standard sorafenib treatment (400 mg twice daily p.o.). Tumors in these patients were followed by DCE-MRI imaging using the same procedures that were used to assess response to JX-594 treatment.
Tumor Vascularity and Response Assessment: DCE MRI (dynamic contrast-enhanced magnetic resonance imaging) was performed at screening (baseline), on Day 5 (optional) and Week 8. For patients going on to Sorafenib, DCE MRI was performed 4 and/or 8 weeks after the start of Sorafenib treatment. DCE MRI assesses tumor size, vascularity and necrosis. The screening/baseline DCE MRI was used as the reference from which to determine time to progression and response rates. […] Tumor progression status and tumor response(s) to JX-594 were assessed radiologically by modified RECIST and modified Choi criteria at the Week 8 visit. Independent review of the images was made by radiologist(s) with expertise in evaluating hepatocellular carcinoma on MRI scans. For evaluation of the intra-hepatic tumors, the proportion of subjects with an objective “complete” or “partial” anti-tumor response was determined based on modified RECIST, and a response as measured by Modified Choi criteria (defined as a ≧10% decrease in the sum of the longest diameter and/or ≧15% decrease in the average tumor signal intensity at MRI).
Tumor Response by Modified Choi Criteria: The Choi response criteria takes into consideration changes in tumor density in addition to tumor diameter (versus RECIST) and data supporting its utility has been published (Choi et al. 2004). Early studies have shown that liver tumors treated with JX-594 can develop significant internal necrosis without a concomitant decrease in size, as has been described in gastrointestinal stromal tumors by Choi et al. (2004). Therefore, intra-hepatic tumors were also measured and response evaluated using a Modified Choi Criteria. The modification of the criteria is necessary as DCE MRI was the imaging modality employed for measuring tumor response. […] The screening/baseline DCE MRI was used as the reference from which to determine response. A response by Modified Choi criteria was defined as a ≧10% decrease in the sum of the longest diameter of the injected tumor(s) and/or ≧15% decrease in the average injected tumor signal intensity on MRI. The average MRI signal intensity (SI) was measured as a percentage of tumor.

The subject of experiment [10] is hepatocellular carcinoma. As to the kind of experiment: Sorafenib-only local control group assessed by Choi criteria. The class given is in vivo, human. The note with it: no JX-594, 26 total, 15 assessed, both responders also had radiation therapy. The method, then: Example Sorafenib Only “Control Group” (Figure Included): Historically, the RECIST response rate to sorafenib alone is 1-2% (Llovet et al., 2008; Cheng et al., 2009). For a local control group assessed by Choi criteria, HCC patients that had not received JX-594, but had received sorafenib, were assessed for Choi response. In the hospital where 4 of the 5 JX-594 patients were treated, 26 other patients had received sorafenib in the same period. 7 patients died prior to response assessment, and 15 patients were assessed for Choi response. […] It should be noted that both of these patients had received radiation therapy in conjunction with sorafenib therapy.

Experiment [11] deals with hepatocellular carcinoma. As to the kind of experiment: Phase 2 trial, IV JX-594 then IT JX-594 then sorafenib in HCC. The format is in vivo, human. The settings on record: Patient JX16-HCC-03, 10 days after sorafenib initiation, after one IV and two IT doses of JX-594. The protocol: JX-594 Treatment Procedure, Patients Treated by IV JX-594 Followed by IT JX-594 Followed by Sorafenib: Patients with unresectable HCC received […] of JX-594 levels (10^9 pfu). For the first dose (Day 1), JX-594 was administred by intravenous infusion over 60 minutes. For the second and third doses (Day 8 and Day 22), JX-594 was administered via imaging-guided intratumoral injection using a multi-pronged Quadrafuse injection needle in roughly spherical tumors, or by a 21-gauge PEIT (percutaneous ethanol injection, multi-pore; HAKKO Medicals; Tokyo, Japan) needle in irregularly-shaped tumors. Starting on Day 25, patients imitated oral sorafenib therapy (400 mg twice daily p.o.). Patients with viable tumor tissue received a Week 12 IT injection of JX-594 (sorafenib treatment was temporarily discontinued 2-3 days before, during and 4-5 days after this booster injection). Imaging (CT, DECE MIR and/or PET-CT) was performed at baseline, Day 25, Week 6 and/or Week 12 to assess response.
Example JX16-HCC-03, IV+IT+IT+Sorafenib Patient: Patient JX16-HCC-03 had hepatocellular carcinoma and was enrolled in a Phase 2 Clinical Trial of JX-594. After completing JX-594 administration (one intravenous and two intratumoral doses) patient received sorafenib.

Experiment [12] concerns hepatocellular carcinoma. The settings on record: cited from earlier work; for mean tumor necrosis (MRI): sorafenib-only trial.

For `CNC(=O)c1cc(Oc2ccc(NC(=O)Nc3ccc(Cl)c(C(F)(F)F)c3)cc2)ccn1` [Sorafenib], the JX-594 replication result is “inhibited” in experiment [1] (10 μM sorafenib, various MOI, 24 hours infection, plaque assay on Vero cells) and “inhibited JX-594 replication” in experiment [4]. In addition, the burst size decreased result in experiment [1] (Sorafenib 10 μM added 2 hrs prior to, during or 2 hrs after JX-594 infection, PLC/PRF/5) is on record as “up to 100 fold”. Further, the “JX-594 plaque formation and replication (burst)” value was “can inhibit viral growth and replication; also recorded: Inhibits JX-594 Plaque Formation and Replication” in experiment [2]; “can inhibit viral growth and replication; also recorded: Inhibits JX-594 Plaque Formation and Replication” in experiment [3]. Besides, in experiment [5], the “JX-594 efficacy against CT26 subcutaneous solid tumors” value was “enhances JX-594 efficacy”. Further, in experiment [6], the “JX-594 efficacy in murine B16 metastatic melanoma model” value is reported as “enhances JX-594 efficacy”. The “number of vessels in CD31-stained tumor sections” value in experiment [7] (Sorafenib alone 400 μg i.p. daily D15-D29, Day 29) is given as “transient decrease in the number of vessels”; in experiment [7] (Sorafenib alone, Day 35), “vessel counts increase again”. In addition, the angiogenesis result in experiment [8] (adjuvant sorafenib after JX-594) is reported as “inhibited angiogenesis”. Besides, the anti-tumoral efficacy entry in experiment [8] (adjuvant sorafenib after JX-594, versus either agent alone) was “significantly improved anti-tumoral efficacy over either agent alone”. In addition, the “DCE MRI finding after initiation of Sorafenib” value is reported as “acute tumor necrosis” in experiment [9] (Patient 1702, after three IT doses JX-594, 4 and 8 weeks of Sorafenib (200 mg twice daily p.o.)); “acute tumor necrosis” in [9] (Patient 1705, after JX-594, 4 weeks of Sorafenib 400 mg twice daily p.o.). In addition, in experiment [9] (Patient 1712, after JX-594, 4 weeks of Sorafenib 400 mg twice daily p.o.), the “DCE-MRI finding after initiation of Sorafenib” value is listed as “acute tumor necrosis”. Besides, the “tumor necrosis and vascular shutdown with adjuvant sorafenib” value in [9] (sorafenib after the Week 8 assessment, patients pre-treated with JX-594) was “dramatic and durable tumor necrosis and vascular shutdown in two patients; also recorded: dramatic and durable tumor necrosis and vascular shutdown in at least three patients”. The “patients with a Choi+ response” value in experiment [10] came to 2 patients. Further, the “DCE-MRI perfusion of non-injected extrahepatic tumor” value in experiment [11] was “loss of perfusion”. In experiment [12] (sorafenib alone, historical (Llovet et al., 2008; Cheng et al., 2009)), the RECIST response rate is 1-2%. Moreover, the “mean tumor necrosis (MRI)” value in experiment [12] (after several courses of treatment (Abou-Alfa et al., 2006)) was 27%; in experiment [12] (at baseline (Abou-Alfa et al., 2006)) it was 9.8%.
